From patent US20100184026A1, “Companion Diagnostic Assays For Endothelin Receptor Antagonists” (ABBOTT LABORATORIES, priority 2009, published 2010)

Assays:
[1] = test system: osteoblastic metastases; conditions: Yin et al. 2003; cited from earlier work
[2] = test system: mouse MC3T3 osteoblast cell line; test: ELISA assays of secreted PAI-1, OPG and IL-6 in osteoblast supernatants; format: cell-based
Description: (§1) Mouse MC3T3 pre-osteoblastic cells (subclone 4) were purchased from ATCC (Manassis, Va.) and propagated in αMEM media without ascorbic acid (Invitrogen, Carlsbad, Calif.) supplemented with 10% FBS (Invitrogen). Human Mesenchymal Stem Cells (MSCs) were purchased from Cambrex (Walkersville, Md.) and propagated according in MSCGM™ media (Cambrex). To initiate differentiation of the MSC into human osteoblasts, the growth media was replaced by osteogenic differentiation medium (OGM, Cambrex).
Mouse MC3T3 osteoblast cells were propagated as set out above, and at times indicated were harvested and spun at 250×g for 10 minutes at room temperature. The clarified supernatants were aliquoted and frozen until analyzed. 200 microliters of each sample was tested in quadruplicate by commercially available ELISA assay kits for PAI-1 (Molecular Innovations, Southfield, Mich.), OPG (Biomedica, San Diego, Calif.) and IL-6 (Ray Biotech, Norcross, Ga.). The ELISA tests were performed according to the manufacturer's instructions. Data from these tests are shown in FIG. 1 (PAI-1), FIG. 2 (OPG) and FIG. 3 (IL-6).

[3] = test system: Mouse preosteoblastic MC3T3 cells; test: Microarray analysis of gene expression in ET-treated mouse osteoblasts; format: cell-based; conditions: for # Genes Blocked by ABT-627, percent of genes induced by ET: drug added 1 hour prior to ET; for Induced by ET (number of genes): genes regulated ≧1.5-fold, p ≦0.01
Description: as §1
(§2) Mouse preosteoblastic MC3T3 cells as well as primary human osteoblasts were treated with ET, from Sigma (St. Louis, Mo.), for 2, 4, and 6 hours in the absence or presence of the ETa receptor antagonist ABT-627, from Abbott Laboratories (Abbott Park, Ill.). The drug was added 1 hour prior to the addition of ET.
(§3) Total RNA was extracted from the treated cell lines and purified on RNeasy columns (Qiagen, Valencia, Calif.). Labeled cRNA was prepared according to the microarray manufacturer Affymetrix's protocol and hybridized to either mouse 430A 2.0 or human U133A 2.0 arrays (Affymetrix, Santa Clara, Calif.). Gene expression fold changes for each treatment were calculated by combining three biological replicates for each treatment using the Rosetta Resolver's Affymetrix error model software and building a ratio from the resulting values. All genes regulated ≧1.5-fold with a p-value of ≦0.01 were retained for further analysis. Conventional two-dimensional clustering was then performed by using the agglomerative hierarchical clustering algorithm. The Euclidean distance was used as the similarity metric.

[4] = test system: metastatic hormone-refractory prostate cancer; conditions: patients with metastatic hormone-refractory prostate cancer; Nelson et al. 2003; cited from earlier work
[5] = test system: primary human osteoblasts; test: Microarray analysis of gene expression in ET-treated primary human osteoblasts; format: cell-based; conditions: ET-1 treatment
Description: as §1, §2
as §3, with “All genes regulated ≧1.5-fold with a p-value of ≦0.01 were retained for further analysis. Conventional two-dimensional clustering was then performed by using the agglomerative hierarchical clustering algorithm. The Euclidean distance was used as the similarity metric.” left out

[6] = endothelin in the presence of ABT-627

CCCCN(CCCC)C(=O)CN1C[C@H](c2ccc3c(c2)OCO3)[C@@H](C(=O)O)[C@@H]1c1ccc(OC)cc1 [ABT-627, (2R,3R,4S)-(+)-2-(4-Methoxyphenyl)-4-(1,3-benzodioxol-5-yl)-1-(N,N-di(n-butyl)aminocarbonylmethyl)-pyrrolidine-3-carboxylic acid]
Metastatic growth [1]: suppressed
Endothelin-induced expression of IL-6 (ELISA) [2, 6]: substantial suppression
Endothelin-induced expression of OPG (ELISA) [2, 6]: substantial suppression
Endothelin-induced expression of PAI-1 (ELISA) [2, 6]: substantial suppression
# Genes Blocked by ABT-627, percent of genes induced by ET ([3]; 2 hr ET): (96%)
# Genes Blocked by ABT-627, percent of genes induced by ET ([3]; 4 hr ET): (83%)
# Genes Blocked by ABT-627, percent of genes induced by ET ([3]; 6 hr ET): (97%)
Induction by ET of suppression-of-apoptosis genes (Nur77, Flt1, NFATc1) ([3]; ET in presence of ABT-627): the induction was blocked
Effect of pre-treatment on ET gene induction events ([3]; all three timepoints (2, 4, 6 hours), pre-treatment before ET): abrogated almost all of these gene induction events
Gene expression changes caused by antagonist alone ([3]; antagonist alone, no ET): very few gene expression changes
Induction by ET-1 of osteoblastic maturation genes (OPG, COX-2, Dmp1, Tgfbi, CTGF, Klf10) ([3]; pre-treatment with ABT-627): blocked
Time to disease progression [4]: extended

CC[C@H](C)[C@H](NC(=O)[C@H](CC(=O)O)NC(=O)[C@H](CC(C)C)NC(=O)[C@H](Cc1c[nH]cn1)NC(=O)[C@@H]1CSSC[C@H](N)C(=O)N[C@@H](CO)C(=O)N[C@H]2CSSC[C@H](NC(=O)[C@H](CCC(=O)O)NC(=O)[C@H](CCCCN)NC(=O)[C@H](CC(=O)O)NC(=O)[C@H](CCSC)NC(=O)[C@H](CC(C)C)NC(=O)[C@H](CO)NC(=O)[C@H](CO)NC2=O)C(=O)N[C@@H](C(C)C)C(=O)N[C@@H](Cc2ccc(O)cc2)C(=O)N[C@@H](Cc2ccccc2)C(=O)N1)C(=O)N[C@H](C(=O)N[C@@H](Cc1c[nH]c2ccccc12)C(=O)O)[C@@H](C)CC [ET]
Expression of IL-6 (ELISA) ([2]; treatment with endothelin): strongly induced
Expression of OPG (ELISA) ([2]; treatment with endothelin): strongly induced
Expression of PAI-1 (ELISA) ([2]; treatment with endothelin): strongly induced
Expression of genes coding for secreted proteins (PAI-1, uPA, TGFbeta2, IL-6, IL-8) [5]: strongly upregulated
# Genes Down-regulated by ET ([3]; 2 hr ET treatment): 423
Induced by ET (number of genes) ([3]; 2 hr ET treatment): 608
# Genes Down-regulated by ET ([3]; 4 hr ET treatment): 295
Induced by ET (number of genes) ([3]; 4 hr ET treatment): 472
# Genes Down-regulated by ET ([3]; 6 hr ET treatment): 95
Induced by ET (number of genes) ([3]; 6 hr ET treatment): 194
Expression of suppression-of-apoptosis genes (Nur77, Flt1, NFATc1) ([3]; ET treatment): induced
Expression of genes coding for secreted proteins (PAI-1, uPA, TGFbeta2, IL-6, IL-8) ([3]; mouse osteoblasts, ET-1 treatment): strongly upregulated
